Measurements taken from patent US20230414771A1, “PREPARATION AND USE OF IMMUNOSTIMULATORY CONJUGATED COMPLEXES FOR TARGETED DELIVERY AND ACTIVATION” (YAFEI SHANGHAI BIOLOGY MEDICINE SCIENCE & TECHNOLOGY CO., …, priority 2020, published 2023).
Where a SMILES comes first, the peptide text is derived from it. The star is where a group is joined. Doxorubicin(3'-N) = COc1cccc2c1C(=O)c1c(O)c3c(c(O)c1C2=O)C[C@@](O)(C(=O)CO)C[C@@H]3O[C@H]1C[C@H](N*)[C@H](O)[C@H](C)O1; Hexanoyl(6-maleimido) = O=C1C=CC(=O)N1CCCCCC(=O)*

What was measured:
CD8+ T cells = assay: MTT cytotoxicity on CD8+ T cells; type: cell-based, C57BL/6 mouse; conditions: 48 hours, relative to C3
Experimental: • 1) Take the spleen of C57BL/6 mouse, place it on the culture dish with 40 uM screen (ice bath), add about 10 mL of normal saline, and gently grind with sterile syringe core. • 2) Transfer the ground cell suspension into a 50 mL centrifuge tube, add about 5 mL of normal saline to rinse the petri dish, and also transfer it into the 50 mL centrifuge tube, and combine the suspensions. • 3) Centrifuge the cell suspension at 1000 r/min for 10 min, discard the supernatant, and add an appropriate volume of normal saline to resuspend. Then add 3 times volume of ammonium chloride erythrocyte lysate, pipetting evenly. After lysing on ice for about 10 min, add 10 mL of normal saline to stop the lysing, and centrifuge at 1000 r/min for 5 min. • 4) After centrifugation, discard the supernatant, add 10 mL of physiological saline, pipette evenly, centrifuge at 1000 r/min for 5 min, and repeat the above operation once. Cells were then resuspended in 10% RMPI 1640 medium for subsequent culture or in 0.5% BSA for subsequent T cell sorting. […]
• A. Washing of CD3/CD28 magnetic beads: a. […] The cells were transferred to another tube to remove the beads as completely as possible and cultured in medium supplemented with […] (which could be increased according to the actual situation) and their status, proliferation and viability were monitored. […]

M2 macrophages = assay: Cytotoxicity screening, inhibition rate of M2 macrophages at 10 uM; type: cell-based, C57BL/6 mice; conditions: 10 uM drug per well, 3 wells, relative to the drug-free group
Experimental: After the cell count in Example 13, the cell concentration was adjusted with the culture medium, and the cells were seeded in a 96-well culture plate at […] of cell suspension per well, wherein the seeding concentration of CD8+ T cells was 100000 cells/well, and the seeding concentration of M2 macrophages was 20000 cells/well. The 96-well plate was incubated overnight for 24 hour at 37° C. in a carbon dioxide (5%) incubator. After 24 hours, 100 ul of cell culture solutions containing different concentrations of drugs were added to the 96-well culture plate. At the same time, a control well (0.1% DMSO) with no drug added and only the corresponding drug solvent and a zero-adjusted well (Blank) with only medium and no cells added was set. Each set was prepared in triplicate and the plates were incubated for 48 hours at 37° C. in a 5% CO2 incubator. After 48 hours, 20 μl MTT (5 mg/ml) was added to each well and the incubation was continued for 4 hours. The culture medium was then gently aspirated, and 150 μl DMSO was added to each well as solvent for dissolution. After dissolution, the absorbance at 490 nm was measured with a microplate reader.
Cytotoxicity screening experiments for some compounds were performed for M2 macrophage inhibition as in embodiment 14.

[1] = 0.5 mg/ml, pH 5.5
Experimental: Add 0.5 ml of sterile water for injection to prepare a 10 mg/ml mother solution. […] Take 30 ul of the mother solution, add 570 ul of buffer solutions with different pH values of 5.5, and prepare a 0.5 mg/ml sample solution. After the sample was clarified, it was placed in a 25° C./37° C. water bath, and after 8 hours, the sample was sampled by HPLC and electrophoresis to detect the content of the sample relative to 0 hours, and the solution stability data of different compounds could be obtained.

[2] = tested on: Human pancreatic carcinoma Panc-1 tumor tissue homogenate; assay: Activation in Panc-1 tumor tissue homogenate; type: biochemical; conditions: Panc-1 homogenate pH 6.0, 37° C., 1 mg/ml
Experimental: (§1) In the experiments of the present disclosure, 1 mg/ml of the sample compound was added to 100 μg of acidified tumor tissue homogenate (pH 6.0) at 37° C. The enzyme in the tumor tissue homogenate can cause the release of doxorubicin, and the reduction of compound and the increase of doxorubicin could be detected by HPLC to compare the activation efficiency of the drug in the tumor tissue.

[3] = tested on: Human ovarian carcinoma SK-OV-3 tumor tissue homogenate; assay: Activation in SK-OV-3 tumor tissue homogenate; type: biochemical; conditions: SK-OV-3 homogenate pH 6.0, 37° C., 1 mg/ml
Experimental: as §1

Human heart = assay: Activation in human heart homogenate; type: biochemical; conditions: pH 6.0, 37° C., 1 mg/ml

SMILES | cytotoxicity against CD8+ T cells (FIG. 5) (CD8+ T cells) | Inhibition rate of M2 macrophages (M2 macrophages) [%] | Stability data of the solution, 8 hr (content relative to 0 hours) [1] [%] | Compound activation ratios (%) [2] [%] | Compound activation ratios (%) [3] [%] | Compound activation ratios (%) (Human heart)
COc1cccc2c1C(=O)c1c(O)c3c(c(O)c1C2=O)C[C@@](O)(C(=O)CO)C[C@@H]3O[C@H]1C[C@H](NC(=O)[C@H](CC(C)C)NC(=O)[C@H](CC(N)=O)NC(=O)[C@H](C)NC(=O)[C@H](C)NC(=O)CCOCCOCCNC(=O)CCN2C(=O)C=CC2=O)[C@H](O)[C@H](C)O1 [QHL-087-DOX] | less cytotoxicity against CD8+ T cells | – | – | – | – | –
COc1cccc2c1C(=O)c1c(O)c3c(c(O)c1C2=O)C[C@@](O)(C(=O)CO)C[C@@H]3O[C@H]1C[C@H](NC(=O)[C@H](CC(C)C)NC(=O)[C@H](CC(N)=O)NC(=O)[C@H](C)NC(=O)[C@H](C)NC(=O)CCCCCN2C(=O)C=CC2=O)[C@H](O)[C@H](C)O1 [EMC-AANL-DOX] ({Hexanoyl(6-maleimido)}-AANL-{Doxorubicin(3'-N)}) | – | 34.6 | 94.3 | 54.8 | 58.4 | 0.2
